Publication PMC11617632, “Long-range conformational changes in the nucleotide-bound states of the DEAD-box helicase Vasa” (Biophysical Journal, 2024)

Assays:
Assay type in all cases: binding
[1] = biological target: T1, Vasa (Bombyx mori, UniProt O01378); assay: NMR titration, 1H-13C methyl-HMQC, slow exchange
T1 construct: gene BmVLG
T1 sequence (O01378 135-564): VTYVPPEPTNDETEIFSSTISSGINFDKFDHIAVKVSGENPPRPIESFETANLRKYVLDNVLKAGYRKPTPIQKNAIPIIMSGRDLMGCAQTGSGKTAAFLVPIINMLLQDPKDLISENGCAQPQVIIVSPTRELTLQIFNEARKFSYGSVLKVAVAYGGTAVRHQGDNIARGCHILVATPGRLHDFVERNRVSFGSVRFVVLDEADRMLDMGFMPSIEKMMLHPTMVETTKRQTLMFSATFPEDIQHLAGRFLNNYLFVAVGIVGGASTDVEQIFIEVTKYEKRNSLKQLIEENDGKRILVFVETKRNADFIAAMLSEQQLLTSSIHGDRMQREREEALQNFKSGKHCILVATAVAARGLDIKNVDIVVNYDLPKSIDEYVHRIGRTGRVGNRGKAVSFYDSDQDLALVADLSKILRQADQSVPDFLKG

[2] = biological target: T2, Vasa (Bombyx mori, UniProt O01378); assay: NMR CSP titration, fast exchange
T2 construct: gene BmVLG
T2 sequence (O01378 135-400): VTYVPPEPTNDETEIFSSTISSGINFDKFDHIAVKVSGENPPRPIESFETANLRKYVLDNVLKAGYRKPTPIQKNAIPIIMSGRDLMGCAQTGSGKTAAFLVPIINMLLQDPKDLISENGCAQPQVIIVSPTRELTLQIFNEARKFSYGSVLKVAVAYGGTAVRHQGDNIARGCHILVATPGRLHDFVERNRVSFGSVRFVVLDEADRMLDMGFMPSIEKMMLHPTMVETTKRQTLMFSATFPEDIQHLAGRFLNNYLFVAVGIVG

[3] = biological target: T1, Vasa; assay: NMR methyl CSP titration, fast exchange (not saturated; KD inaccurate)

For `Nc1ncnc2c1ncn2[C@@H]1O[C@H](COP(=O)(O)OP(=O)(O)O)[C@@H](O)[C@H]1O` [ADP], the Kd [1] was 0.053 ± 0.015 mM.

`Nc1ncnc2c1ncn2[C@@H]1O[C@H](COP(=O)(O)OP(=O)(O)OP(=O)(O)O)[C@@H](O)[C@H]1O` [ATP] was tested, and the Kd [2] was 1.6 ± 0.6 mM.

For `Nc1ncnc2c1ncn2[C@@H]1O[C@H](CO[P@](=O)(O)O[P@](=O)(O)O[P@@](=O)(O)S)[C@@H](O)[C@H]1O` [ATPγS, adenosine 5′-γ-thiotriphosphate], the Kd [3] was ~18.8 mM.
